Laboratory results from patent publication WO2015077660A1, “Enzyme reactor system enabling enhanced enzymatic digestion, analyte solubility and improved mass spectrometric compatibility” (priority 2013, dated 2014).
Counter-ions that a name gives are not always drawn.

Legend:
trypsin [1] = test: Insulin digestion in immobilized enzyme reactor, buffer screening (Table 7); type: biochemical, porcine; conditions: IMER; for Digested / Peptide / Undigested: 70°C, 60 s; for digestion efficiency: CaCl2 as high as 500 mM
porcine trypsin [2] = system: T1, porcine trypsin; test: Insulin digestion by trypsin in solution, buffer screening (Table 9); type: biochemical; conditions: for Digested / Peptide / Undigested: 37°C, 18 h; for trypsin digestion: high concentrations, as high as 500 mM
T1 construct: purchased

trypsin [3] = test: Human IgG digestion in response to calcium concentration (Table 11); type: biochemical, porcine; conditions: CaCl2 above 1 mM
[4] = Plasma digestion with buffer/additive combinations, aggregation; type: physicochemical, beagle; conditions: 100mM CaCl2, 90 minutes
BSA = test: Screen of additives for prevention of aggregation (Table 5); type: physicochemical, bovine; conditions: 12.5 mg/mL BSA, 70°C, four columns in printed order, heads missing
[5] = Aggregation of BSA in IMER, ammonium acetate, 5mM CaCl2, 5% glycerol (Table 34); type: physicochemical; conditions: 5% and 10% (Tables 34 and 35), 50mM ammonium acetate, 5mM CaCl2, 70°C
[6] = Aggregate formation on digestion at high protein loads; type: physicochemical, monkey; conditions: 10% final concentration with 500 mM CaCl2
[7] = Aggregation of BSA in IMER, ammonium acetate, 5mM CaCl2, 0.1% octylglucoside (Table 33); type: physicochemical; conditions: 0.1% in 50mM ammonium acetate, 5mM CaCl2, 70°C
porcine trypsin [8] = system: T1, porcine trypsin; test: Comparing digestion buffers, solution digestion of insulin; type: biochemical; conditions: 37°C, 18 hours, versus tris buffer containing calcium chloride

In the case of [Ca+2].[Cl-].[Cl-] [CaCl2, calcium chloride], the Digested (trypsin [1]; 0.05M) is reported as 2725600, the Peptide (trypsin [1]; 0.05M) is reported as 1172085 and the Undigested (trypsin [1]; 0.05M) is reported as 802494. For the same molecule, the Digested (trypsin [1]; 0.1M) was 2844924, the Peptide (trypsin [1]; 0.1M) was 1221898 and the Undigested (trypsin [1]; 0.1M) was 609138. For the same molecule, the Digested (trypsin [1]; 0.25M) was 2950068, the Peptide (trypsin [1]; 0.25M) was 1264212 and the Undigested (trypsin [1]; 0.25M) was 571246. The Digested (trypsin [1]; 0.5M) was 3031625, the Peptide (trypsin [1]; 0.5M) was 1290650 and the Undigested (trypsin [1]; 0.5M) was 234332. It also gave a Digested (trypsin [1]; 1M) of 3066738, a Peptide (trypsin [1]; 1M) of 1263872 and an Undigested (trypsin [1]; 1M) of 16129. The digestion efficiency (trypsin [1]) was “An increase in digestion was observed”, the digestion efficiency (trypsin [1]; listed as calcium chloride) was “digestion efficiency increased dramatically” and the Digested (porcine trypsin [2]; 0.05M) was 2007752. The Peptide (porcine trypsin [2]; 0.05M) was 860714, the Undigested (porcine trypsin [2]; 0.05M) was 2746822 and the Digested (porcine trypsin [2]; 0.1M) was 2377399. It also gave a Peptide (porcine trypsin [2]; 0.1M) of 1074482, an Undigested (porcine trypsin [2]; 0.1M) of 2139571 and a Digested (porcine trypsin [2]; 0.25M) of 3241428. The Peptide (porcine trypsin [2]; 0.25M) was 1430859, the Undigested (porcine trypsin [2]; 0.25M) was 2885626 and the Digested (porcine trypsin [2]; 0.5M) was 3340960. It also gave a Peptide (porcine trypsin [2]; 0.5M) of 1474912, an Undigested (porcine trypsin [2]; 0.5M) of 856015 and a Digested (porcine trypsin [2]; 1M) of 3203158. The Peptide (porcine trypsin [2]; 1M) was 1344334, the Undigested (porcine trypsin [2]; 1M) was 949033 and the trypsin digestion (porcine trypsin [2]) was “An increase in digestion was observed”. The trypsin digestion (porcine trypsin [2]; listed as calcium chloride) was “dramatically improve trypsin digestion” and the enzyme efficiency (trypsin [3]) was “increase enzyme efficiency”.
For NC=O [Formamide], the Digested (trypsin [1]; 5%) was 1424720, the Peptide (trypsin [1]; 5%) was 580956 and the Undigested (trypsin [1]; 5%) was 3061491. For the same molecule, the Digested (trypsin [1]; 10%) was 745680, the Peptide (trypsin [1]; 10%) was 305599 and the Undigested (trypsin [1]; 10%) was 3827192. The Digested (trypsin [1]; 15%) was 375288, the Peptide (trypsin [1]; 15%) was 155245 and the Undigested (trypsin [1]; 15%) was 4129486. For the same molecule, the Digested (trypsin [1]; 20%) was 200621, the Peptide (trypsin [1]; 20%) was 82549 and the Undigested (trypsin [1]; 20%) was 4430620. The Digested (porcine trypsin [2]; 5%) was 1126069, the Peptide (porcine trypsin [2]; 5%) was 500704 and the Undigested (porcine trypsin [2]; 5%) was 3871868. For the same molecule, the Digested (porcine trypsin [2]; 10%) was 1509456, the Peptide (porcine trypsin [2]; 10%) was 693291 and the Undigested (porcine trypsin [2]; 10%) was 4196754. For the same molecule, the Digested (porcine trypsin [2]; 15%) was 973971, the Peptide (porcine trypsin [2]; 15%) was 421130 and the Undigested (porcine trypsin [2]; 15%) was 4281392. For the same molecule, the Digested (porcine trypsin [2]; 20%) was 470938, the Peptide (porcine trypsin [2]; 20%) was 194156 and the Undigested (porcine trypsin [2]; 20%) was 4620417. The aggregation ([4]; 10% in 50mM TBS) was “significant aggregation”.
With N=C(N)N [Gdn HC1, guanidine hydrochloride] the Digested (trypsin [1]; 0.5M) was 723258, the Peptide (trypsin [1]; 0.5M) was 309390 and the Undigested (trypsin [1]; 0.5M) was 4114993. The Digested (trypsin [1]; 1M) was 423606, the Peptide (trypsin [1]; 1M) was 179523 and the Undigested (trypsin [1]; 1M) was 4328875. It also gave a Digested (trypsin [1]; 2M) of 136773, a Peptide (trypsin [1]; 2M) of 56700 and an Undigested (trypsin [1]; 2M) of 4244827. It also gave a Digested (trypsin [1]; 4M) of 40578, a Peptide (trypsin [1]; 4M) of 15000 and an Undigested (trypsin [1]; 4M) of 4562051. For the same molecule, the Digested (trypsin [1]; 6M) was 9402, the Peptide (trypsin [1]; 6M) was 2447 and the Undigested (trypsin [1]; 6M) was 4396495. It also gave a Digested (porcine trypsin [2]; 0.5M) of 216251, a Peptide (porcine trypsin [2]; 0.5M) of 101735 and an Undigested (porcine trypsin [2]; 0.5M) of 5487176. It also gave a Digested (porcine trypsin [2]; 1M) of 215746, a Peptide (porcine trypsin [2]; 1M) of 94828 and an Undigested (porcine trypsin [2]; 1M) of 5229914. For the same molecule, the Digested (porcine trypsin [2]; 2M) was 184318, the Peptide (porcine trypsin [2]; 2M) was 67546 and the Undigested (porcine trypsin [2]; 2M) was 5455780. The Digested (porcine trypsin [2]; 4M) was 30954, the Peptide (porcine trypsin [2]; 4M) was 11014 and the Undigested (porcine trypsin [2]; 4M) was 6195166. It also gave a Digested (porcine trypsin [2]; 6M) of 5871, a Peptide (porcine trypsin [2]; 6M) of 1647 and an Undigested (porcine trypsin [2]; 6M) of 5301367. The aggregation (BSA; 0.5M, listed as Guanidine HC1, hydrochloride) was “N and Ν”.
Molecule OCC(O)CO [Glycerol] has a Digested (trypsin [1]; 5%) of 2051870, a Peptide (trypsin [1]; 5%) of 828171 and an Undigested (trypsin [1]; 5%) of 2217803. The Digested (trypsin [1]; 10%) was 1779261, the Peptide (trypsin [1]; 10%) was 697488 and the Undigested (trypsin [1]; 10%) was 2432362. For the same molecule, the Digested (trypsin [1]; 20%) was 1167862, the Peptide (trypsin [1]; 20%) was 445736 and the Undigested (trypsin [1]; 20%) was 3174668. The Digested (porcine trypsin [2]; 5%) was 1007768, the Peptide (porcine trypsin [2]; 5%) was 432166 and the Undigested (porcine trypsin [2]; 5%) was 3685707. It also gave a Digested (porcine trypsin [2]; 10%) of 833521, a Peptide (porcine trypsin [2]; 10%) of 353626 and an Undigested (porcine trypsin [2]; 10%) of 4404492. The Digested (porcine trypsin [2]; 20%) was 654553, the Peptide (porcine trypsin [2]; 20%) was 275165 and the Undigested (porcine trypsin [2]; 20%) was 5163829. For the same molecule, the digestion efficiency (porcine trypsin [2]; lower to moderate concentrations) was “does not significantly, negatively impact digestion efficiency”, the aggregation ([4]; 10% in 50mM TBS) was “no aggregation” and the “sample solubility and aggregation” value [5] was “enhances sample solubility and prevents aggregation”. For the same molecule, the formation of aggregates [6] was “prevented the formation of aggregates”, the aggregation (BSA; 5%) was “Ν” and the aggregation (BSA; 10%) was “Ν”.
CCCCCCCCO[C@@H]1O[C@H](CO)[C@@H](O)[C@H](O)[C@H]1O [OGS, octylglucoside] gave a Digested (trypsin [1]; 0.05%) of 2394275, a Peptide (trypsin [1]; 0.05%) of 958775 and an Undigested (trypsin [1]; 0.05%) of 1730676. For the same molecule, the Digested (trypsin [1]; 0.1%) was 2255277, the Peptide (trypsin [1]; 0.1%) was 891922 and the Undigested (trypsin [1]; 0.1%) was 2114234. For the same molecule, the Digested (trypsin [1]; 0.15%) was 2430665, the Peptide (trypsin [1]; 0.15%) was 942341 and the Undigested (trypsin [1]; 0.15%) was 2160281. It also gave a Digested (trypsin [1]; 0.2%) of 2255277, a Peptide (trypsin [1]; 0.2%) of 891922 and an Undigested (trypsin [1]; 0.2%) of 2114234. The Digested (porcine trypsin [2]; 0.05%) was 1424601, the Peptide (porcine trypsin [2]; 0.05%) was 581489 and the Undigested (porcine trypsin [2]; 0.05%) was 3798587. For the same molecule, the Digested (porcine trypsin [2]; 0.1%) was 1616907, the Peptide (porcine trypsin [2]; 0.1%) was 675287 and the Undigested (porcine trypsin [2]; 0.1%) was 4128179. The Digested (porcine trypsin [2]; 0.15%) was 1538290, the Peptide (porcine trypsin [2]; 0.15%) was 636117 and the Undigested (porcine trypsin [2]; 0.15%) was 3751677. For the same molecule, the Digested (porcine trypsin [2]; 0.2%) was 1574071, the Peptide (porcine trypsin [2]; 0.2%) was 619589 and the Undigested (porcine trypsin [2]; 0.2%) was 3732438. The aggregation ([4]; 0.1% in 50mM TBS) was “significant aggregation”, the aggregation (BSA; additive concentration not given) was “Ν” and the “sample solubility and aggregation” value [7] was “enhances sample solubility and prevents aggregation”.
For N.O=C(O)O [ammonium bicarbonate], the enzyme activity (porcine trypsin [8]) was “significantly higher”.
